# Columns and labels:
# [1] = test system: Pan02 mouse pancreatic adenocarcinoma; assay: 3G4 and gemcitabine, pancreatic cancer; format: in vivo; details: 3G4 100 μg, gemcitabine 3.5 mg; day 22
# Description: Pan02 mouse pancreatic adenocarcinoma cells were injected into the pancreas of immunocompetent C57BL/6 mice. Treatment was started on day 5 after tumor cell injection. […] Gemcitabine is a pyrimidine anti-metabolite. The animals were sacrificed at day 22 after tumor cell injection, and the tumor weight determined.
# tumor vessels = assay: Docetaxel-induced PS exposure on tumor vessels; format: in vivo, mouse; details: after docetaxel treatment; 35% before
# Source text: In such studies, docetaxel treatment of mice increased the percentage of tumor vessels that expose anionic phospholipids from 35% to 60%. No induction of PS was observed on vessels in normal tissues even after systemic treatment with docetaxel.
# [2] = test system: 3LL, Colo26, MDA-MB-435, B16, Meth A cells; assay: Docetaxel-induced PS exposure on tumor cell lines, FACS; format: cell-based, mouse, human; details: 10 nM, 24 hrs
# Description: The in vitro induction of PS exposure by subclinical concentrations of docetaxel was also examined by FACS analysis using a panel of tumor cell lines. Mouse lewis lung carcinoma 3LL, mouse colon carcinoma Colo26 and human breast cancer MDA-MB-435 cells were treated with 10 nM of docetaxel for 24 hrs and examined by FACS. […] Docetaxel incubations for 48 and 72 hrs were also conducted.
# HUVEC and HMVEC = assay: Docetaxel-induced PS exposure on endothelial cells, FACS; format: cell-based, human
# Description: The induction of PS exposure on endothelial cells by subclinical concentrations of docetaxel was examined in vitro by FACS analysis. […] […] Docetaxel incubations for 48 and 72 hrs were also conducted.
# mCMV RVG102 = assay: Survival of mCMV-infected mice; format: in vivo, mouse; details: past 90 days post infection; untreated 25%
# Monkey safety studies = format: in vivo, cynomolgus monkeys; details: repeat dosing
# Description: This is 100 times the calculated therapeutic dose ([…]).
# [3] = test system: U937 cells infected with Vaccinia virus; format: cell-based; details: m.o.i of 2, 2 days
# [4] = Phospholipid specificity ELISA; format: binding
# Description: The specificity of the antibodies was determined by ELISA using plates coated with the following phospholipids: PS, phosphatidylserine; PE, phosphatidylethanolamine; PI, phosphatidylinositol; PA, phosphatidic acid; PG, phosphatidylglycerol; PC, phosphatidylcholine; CL, cardiolipin; and SM, sphingomyelin.
# [5] = Binding of ch3G4 and 2aG4 to phospholipid-coated ELISA plates; details: vs murine 3G4
# [6] = Serum dependence of binding to PS
# Description: The serum dependence or independence of the antibodies is also set forth in Table 2 (see also, Example XXX).
# The 1B9, 2G7 and 7C5 antibodies behave essentially the same. These antibodies recognize only PS and require serum or serum proteins for binding to PS. The binding of 1B9, 2G7 and 7C5 to various phospholipids in the present example was assayed only in the presence of 10% bovine serum, whereas binding of the other antibodies was tested either in the absence or in the presence of serum.
# [7] = test system: ABAE cells with exposed PS; assay: Live-cell binding assay on LPC-treated endothelial cells; format: cell-based, bovine
# Description: Adult bovine aortic endothelial (ABAE) cells were maintained in DMEM supplemented with 10% FBS and 2 mM L-glutamine. ABAE cells were removed from subconfluent cultures by brief exposure to 0.25% trypsin/0.02% EDTA, and 8-well chamber slides were seeded with 2×10^4 cells/well. Following overnight culture, cells were washed gently with PBS and treated with 200 μM lysophosphatidylcholine (LPC) to induce PS exposure.
# PS exposure was determined by immunofluorescence staining. Cells were washed thoroughly in PBS, fixed in 4% paraformaldehyde (w/v), and incubated with a biotin-conjugated anti-mouse secondary antibody. Next, cells were incubated with FITC-conjugated streptavidin (Jackson Immunoresearch) to detect antibody binding. Cells were then permeablized with 0.1% Triton-X100 in PBS and counterstained with Texas Red-conjugated phalloidin (Molecular Probes, Eugene, Oreg.), and 4′, 6-diamidino-2-phenylindole (DAPI; Molecular Probes). Images were captured using a Coolsnap digital camera (Photometrics, Tucson, Ariz.) mounted on a Nikon microscope and processed with MetaVue software (Universal Imaging Corporation, Downingtown, Pa.).
# The area of antibody binding was determined using MetaVue image analysis software, which is able to quantify the number of illuminated pixels in an image. Images of FITC fluorescence were used to quantify antibody binding. Corresponding images of DAPI fluorescence were used to normalize the FITC images for the number of cells present in the field. A small FITC/DAPI ratio indicates a small antibody binding area, whereas a large FITC/DAPI ratio indicates a large binding area. The FITC/DAPI ratios were used to determine increases or decreases in antibody binding area relative to a basal amount of antibody binding under the selected conditions. Five images at 200× magnification were used for each analysis. Data are presented as average relative FITC/DAPI ratios with error bars representing the standard deviation.
# Cells were then washed, fixed, and stained with fluorescent markers to visualize binding of antibody to the cell surface.
# [8] = Administration to atherosclerotic rabbits; details: rabbit, in vivo
# MDA-MB-435 breast tumors = assay: 3G4 and chimeric 3G4 tumor treatment; format: in vivo, mouse; details: MD-MBA-435s; IP 800 μg day 15, 200 μg every two to three days, 400 μg day 35
# Description: Tumors were also established using MD-MBA-435s cells and treated as described above. […] The treatment of large L540 tumors, MDA-MB-231 and MD-MBA-435s tumor cells for 60 days was also effective. The antibodies caused tumor vascular injury, thrombosis and necrosis and retarded tumor growth, with no evidence of toxicity.
# MD-MBA-435s lucerifase cells were obtained from Dr. Angels Sierra Jimenez, Barcelona, Spain and were grown in 10% DMEM. Mice were injected with tumor cells as described as above, and at 2 weeks post injection, the tumors were measured and the volume recorded. […] Treatment was initiated by IP injection (800 μg) at day 15 and continued with injections of 200 μg every two to three days until the final injection of 400 μg at day 35. Tumor volumes and mouse body weights were measured on injection days. Mice were sacrificed and perfused with saline for 12 minutes. The organs and tumor were removed, snap-frozen in liquid nitrogen and the tumor sectioned for immunohistochemistical analysis.
# Groups of 8-10 female SCID mice were injected subcutaneously with 2×10^7 L540 cells or orthotopically with 1×10^7 MDA-MB-435 or MDA-MB-231 cells. BALB/c mice were injected subcutaneously with 1×10^6 Meth A cells. […] Animals were monitored three times a week for tumor size and body weight. […]
# human β2GPI = molecular target: T1, human β2GPI (Homo sapiens, UniProt P02749); assay: Anti-hβ2GPI ELISA; format: binding
# T1 construct: Human β2GPI (hβ2GP1) was purified from human plasma essentially as described previously; from tissue; host or cells: pooled human plasma
# T1 sequence (P02749 20-345): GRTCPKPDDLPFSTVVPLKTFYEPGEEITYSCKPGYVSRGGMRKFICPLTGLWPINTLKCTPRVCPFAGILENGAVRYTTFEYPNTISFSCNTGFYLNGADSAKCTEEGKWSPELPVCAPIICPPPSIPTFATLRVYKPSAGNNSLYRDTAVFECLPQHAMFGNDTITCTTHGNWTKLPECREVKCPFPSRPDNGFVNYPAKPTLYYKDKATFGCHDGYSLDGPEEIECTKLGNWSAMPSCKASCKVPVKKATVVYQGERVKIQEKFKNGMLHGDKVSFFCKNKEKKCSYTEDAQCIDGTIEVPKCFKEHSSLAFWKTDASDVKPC
# Description: The assay was performed as described above with the following modifications. hβ2GPI, nicked hβ2GPI, or recombinant hβ2GPI peptides were coated on 96-well Immunlon 2HB microtiter plates overnight at a concentration of 10 μg/ml. Plates were then blocked in 1% OVA for 1 hr. at room temperature. […] Plates were incubated for 1 hr. at 37° C. and antibody binding was detected. All ELISA studies were performed at least three times.
# [9] = test system: syngeneic prostatic tumors; assay: Bavituximab in rats with syngeneic prostatic tumors; details: rat, in vivo
# WiDr (colon carcinoma) = assay: WiDr colon carcinoma model; format: in vivo, mouse; details: 100 μg 3×/week from day 5; preliminary study
# Description: Treatment was started on day 5, when the tumors were small (10 mice per group). 100 μg of each antibody was injected 3×/week and tumor growth monitored.
# bEnd.3 endothelial cells = assay: H2O2 induction of PS, anti-PS staining and Trypan Blue exclusion
# ABAE cells = assay: Induction of PS exposure, 125I-annexin V binding; format: cell-based, bovine; details: ABAE and bEnd.3 cells, immunohistochemically
# Description: All reagents were diluted in medium containing 10% serum and incubated with the cells at 37° C. for 24 h.
# To study the effect of hypoxia, cells were seeded on 24 well plates and were incubated in a humidified normoxic atmosphere (21% O2, 5% CO2) for 48 h before being transferred to a humidified hypoxic atmosphere (1% O2, 5% CO2, 94% N2) in a sealed chamber (Billups Rothenberg Inc., Del Mar, Ca). Cells were incubated in a hypoxic chamber for 24 h at 37° C. and were then returned to a normoxic environment for 4 h at 37° C. The cells were compared to a parallel culture from an identical passage, seeded on the same day and maintained entirely under normoxic conditions. In some studies, IL-1α (10 ng/ml) and TNFα (20 ng/ml) were added to the medium before transfer to the hypoxic chamber.
# After treatment with the reagents described above, treated and control cells were incubated with 7.1 pmoles of ^125I-labeled annexin V (200 μl/well) in the binding buffer. After 2 h incubation at room temperature, cells were washed extensively and dissolved in 0.5 M of NaOH. The entire volume of 0.5 ml was transferred to plastic tubes and counted in a gamma counter. Non-specific binding was determined in the presence of 5 mM EDTA and was subtracted from experimental values. The results were expressed as net pmoles of cell-bound annexin V, normalized per 1×10^6 cells.
# Maximal binding of annexin V was determined on cells simultaneously treated with actinomycin D and TNFα (50 ng/ml of each component). As has been previously reported, these agents cause apoptosis and PS exposure in 90-100% of endothelial cells (Lucas et al., 1998). Basal binding of ^125I-annexin V to untreated cells was determined in the presence of medium with 10% serum. The amount of ^125I-annexin V that bound to the untreated cultures was subtracted from that in the treated cultures. Exposure of PS was calculated according to the following formula: cell-bound annexin V (pmoles) under experimental conditions divided by maximal annexin V binding (pmoles), multiplied by 100. Each study was performed in duplicate and was performed at least three times. Mean values were calculated. The SE of the mean values from three separate experiments was less than 5%.
compound,measurement,setting,value
"Nc1ccn([C@@H]2O[C@H](CO)[C@@H](O)C2(F)F)c(=O)n1 [gemcitabine, reference compound]",anti-tumor effect (tumor weight),[1],significant anti-tumor effect
CC(=O)O[C@@]12CO[C@@H]1C[C@H](O)[C@@]1(C)C(=O)[C@H](O)C3=C(C)[C@@H](OC(=O)[C@H](O)[C@@H](NC(=O)OC(C)(C)C)c4ccccc4)C[C@@](O)([C@@H](OC(=O)c4ccccc4)[C@H]21)C3(C)C [docetaxel],tumor vessels that expose anionic phospholipids,tumor vessels,60%
same,3G4 binding vs untreated cells,[2],significant increase in 3G4 binding
same,externalization of anionic phospholipids on HUVEC,HUVEC and HMVEC; 20 pM,caused anionic phospholipids to be externalized without inducing apoptosis
same,3G4 binding vs untreated cells,"HUVEC and HMVEC; 10 nM, 24 hrs",significant increase in 3G4 binding
"ch3G4: Human-mouse chimeric (human IgG1) version of 3G4, termed bavituximab",survival,mCMV RVG102,80%
same,No adverse effect level (NOAEL),Monkey safety studies,approximately 10 mg/kg/week
same,FACS shift vs uninfected cells,[3],significant shift
same,Relative Strength of Reactivity on ELISA,[4],PS = PA = PI = PG = CL >> PE
same,binding to phospholipid-coated ELISA plates,[5],bound at least as did well as the murine 3G4
same,Serum cofactor?,[6],Yes
same,binding to LPC-treated ABAE cells,[7]; 10% MS plus purified hβ2GPI,widespread binding
same,binding to LPC-treated ABAE cells,"[7]; 10% MS, no hβ2GPI",no antibody binding was detected
same,safety in atherosclerotic rabbits,[8]; listed as chimeric version of the 3G4 antibody,did not exacerbate aortic atherosclerotic lesions
same,safety in atherosclerotic rabbits,[8]; listed as humanized 3G4 antibody,shown to be safe
same,tumor growth vs control,MDA-MB-435 breast tumors,effectively retarded tumor growth
same,binding to nicked hβ2GPI coated on microtiter plates,human β2GPI,binds nicked hβ2GPI as well as hβ2GPI
same,tumor homing of radiolabeled antibody,[9],shown to home to syngeneic prostatic tumors in rats
same,tumor perfusion,[9],Reduced tumor perfusion
same,tumor growth,WiDr (colon carcinoma),slowed tumor growth to essentially the same degree
"OO [Hydrogen peroxide, hydrogen peroxide]",cell viability,bEnd.3 endothelial cells; H2O2 at high concentrations,50-60%
same,cell viability,"bEnd.3 endothelial cells; low levels of H2O2, identical to untreated control",95%
same,cells that bound biotinylated annexin V,ABAE cells,More than 70%

# — US20160311886A1, “Constructs Binding to Phosphatidylserine and Their Use in Disease Treatment and Imaging” (Board of Regents, The University of Texas System, priority 2005, published 2016)
